Assay results as given in the NIST ThermoML archive (doi:10.1016/j.jct.2013.11.027).
Values joined by “and” are separate entries in the source; they are usually repeats but may differ in a detail not shown here. Equal entries are not always repeated. Numbers after ± are expanded uncertainties.

Legend:
[1] = refractive index (Na D-line) (dimensionless); details: 101.33 kPa, Liquid, Standard Abbe refractometry
[2] = 101.33 kPa, Liquid; for speed of sound: Sing-around technique in a fixed-path interferometer; for mass density: Vibrating tube method
[3] = refractive index (Na D-line) (dimensionless); xn = mol fraction of the nth substance listed; details: 101 kPa, Liquid, Standard Abbe refractometry, x2 = 0
[4] = xn = mol fraction of the nth substance listed; details: 101 kPa, Liquid, x2 = 0; for speed of sound: Sing-around technique in a fixed-path interferometer; for mass density: Vibrating tube method

| Structure (SMILES) | refractive index ([1]; 293.15 K) | refractive index ([1]; 298.15 K) | refractive index ([1]; 303.15 K) | refractive index ([1]; 308.15 K) | refractive index ([1]; 313.15 K) | refractive index ([1]; 318.15 K) | refractive index ([1]; 323.15 K) | speed of sound ([2]; 293.15 K) [m/s] | mass density ([2]; 293.15 K) [kg/m3] | speed of sound ([2]; 298.15 K) [m/s] | mass density ([2]; 298.15 K) | speed of sound ([2]; 303.15 K) [m/s] | mass density ([2]; 303.15 K) [kg/m3] | speed of sound ([2]; 308.15 K) [m/s] | mass density ([2]; 308.15 K) | speed of sound ([2]; 313.15 K) [m/s] | mass density ([2]; 313.15 K) [kg/m3] | speed of sound ([2]; 318.15 K) [m/s] | mass density ([2]; 318.15 K) | speed of sound ([2]; 323.15 K) [m/s] | further results |
| --- | --- | --- | --- | --- | --- | --- | --- | --- | --- | --- | --- | --- | --- | --- | --- | --- | --- | --- | --- | --- | --- |
| C1COCCO1 [1,4-dioxane] | 1.42215 ± 0.00037 | 1.41967 ± 0.00037 | 1.41725 ± 0.00037 | 1.4148 ± 0.00037 | 1.41236 ± 0.00037 | 1.40993 ± 0.00037 | 1.40749 ± 0.00037 | 1367.2 ± 1.2 | 1033.5 ± 0.12 | 1345 ± 1.2 | 1027.85 ± 0.12 kg/m3 | 1323 ± 1.2 | 1022.19 ± 0.12 | 1301.1 ± 1.2 | 1016.52 ± 0.12 kg/m3 | 1279.4 ± 1.2 | 1010.83 ± 0.12 | 1257.8 ± 1.2 | 1005.12 ± 0.12 kg/m3 | 1236.3 ± 1.2 | mass density ([2]; 323.15 K): 999.4 ± 0.12 kg/m3 |
| C1CCOC1 [tetrahydrofuran] + CCCCCCn1cc[n+](C)c1.F[B-](F)(F)F |  |  |  |  |  |  |  |  |  |  |  |  |  |  |  |  |  |  |  |  | refractive index ([3]; 298.15 K): 1.4042 ± 0.00039; refractive index ([3]; 308.15 K): 1.39885 ± 0.00039; refractive index ([3]; 318.15 K): 1.39349 ± 0.00039; speed of sound ([4]; 298.15 K): 1280.5 ± 1.4 m/s; mass density ([4]; 298.15 K): 882.209 ± 0.17 kg/m3; speed of sound ([4]; 308.15 K): 1232.5 ± 1.4 m/s; mass density ([4]; 308.15 K): 871.159 ± 0.17 kg/m3; speed of sound ([4]; 318.15 K): 1185.2 ± 1.4 m/s; mass density ([4]; 318.15 K): 859.955 ± 0.18 kg/m3 |
| C1COCCO1 [1,4-dioxane] + CCCCCCCC[n+]1ccn(C)c1.F[B-](F)(F)F |  |  |  |  |  |  |  |  |  |  |  |  |  |  |  |  |  |  |  |  | refractive index ([3]; 298.15 K): 1.41967 ± 0.00037; refractive index ([3]; 308.15 K): 1.4148 ± 0.00037; refractive index ([3]; 318.15 K): 1.40993 ± 0.00037; speed of sound ([4]; 298.15 K): 1345 ± 1.2 m/s; mass density ([4]; 298.15 K): 1027.85 ± 0.12 kg/m3; speed of sound ([4]; 308.15 K): 1301.1 ± 1.2 m/s; mass density ([4]; 308.15 K): 1016.52 ± 0.12 kg/m3; speed of sound ([4]; 318.15 K): 1257.8 ± 1.2 m/s; mass density ([4]; 318.15 K): 1005.12 ± 0.12 kg/m3 |
| C1CCOC1 [tetrahydrofuran] | 1.40696 ± 0.00039 | 1.4042 ± 0.00039 | 1.40157 ± 0.00039 | 1.39885 ± 0.00039 | 1.39623 ± 0.00039 | 1.39349 ± 0.00039 | 1.39083 ± 0.00039 | 1304.6 ± 1.4 | 888.69 ± 0.17 | 1280.5 ± 1.4 | 882.21 ± 0.17 kg/m3 and 882.209 ± 0.17 kg/m3 | 1256.4 ± 1.4 | 877.7 ± 0.17 | 1232.5 ± 1.4 | 872.16 ± 0.17 kg/m3 and 871.159 ± 0.17 kg/m3 | 1208.8 ± 1.4 | 866.58 ± 0.18 | 1185.2 ± 1.4 | 860.96 ± 0.18 kg/m3 and 859.955 ± 0.18 kg/m3 | 1161.7 ± 1.3 | mass density ([2]; 323.15 K): 855.29 ± 0.18 kg/m3 |
| C1CCOC1 [tetrahydrofuran] + CCCCCCCC[n+]1ccn(C)c1.F[B-](F)(F)F |  |  |  |  |  |  |  |  |  |  |  |  |  |  |  |  |  |  |  |  | refractive index ([3]; 298.15 K): 1.4042 ± 0.00039; refractive index ([3]; 308.15 K): 1.39885 ± 0.00039; refractive index ([3]; 318.15 K): 1.39349 ± 0.00039; speed of sound ([4]; 298.15 K): 1280.5 ± 1.4 m/s; mass density ([4]; 298.15 K): 882.209 ± 0.17 kg/m3; speed of sound ([4]; 308.15 K): 1232.5 ± 1.4 m/s; mass density ([4]; 308.15 K): 871.159 ± 0.17 kg/m3; speed of sound ([4]; 318.15 K): 1185.2 ± 1.4 m/s; mass density ([4]; 318.15 K): 859.955 ± 0.18 kg/m3 |
| CCCCCCn1cc[n+](C)c1.F[B-](F)(F)F [1-hexyl-3-methylimidazolium tetrafluoroborate] | 1.43308 ± 0.00053 | 1.43167 ± 0.00053 | 1.43029 ± 0.00053 | 1.4289 ± 0.00053 | 1.42752 ± 0.00053 | 1.42612 ± 0.00053 | 1.42474 ± 0.00053 | 1509.3 ± 2.3 | 1148.76 ± 1.1 | 1496.7 ± 2.3 | 1145.11 ± 1.1 kg/m3 | 1484.3 ± 2.3 | 1141.47 ± 1.1 | 1472 ± 2.3 | 1137.71 ± 1.1 kg/m3 | 1459.8 ± 2.3 | 1134.09 ± 1.1 | 1447.7 ± 2.3 | 1130.49 ± 1.1 kg/m3 | 1435.7 ± 2.3 | mass density ([2]; 323.15 K): 1126.89 ± 1.1 kg/m3 |
| CCCCCCCC[n+]1ccn(C)c1.F[B-](F)(F)F [1-methyl-3-octylimidazolium tetrafluoroborate] | 1.43389 ± 0.0017 | 1.43296 ± 0.0017 | 1.43192 ± 0.0017 | 1.42939 ± 0.0017 | 1.42772 ± 0.0017 | 1.42684 ± 0.0017 | 1.42696 ± 0.0017 | 1495.5 ± 2.3 | 1100.59 ± 1.1 | 1481.1 ± 2.3 | 1097.61 ± 1 kg/m3 | 1467.3 ± 2.3 | 1094.07 ± 1 | 1453.9 ± 2.3 | 1090.9 ± 1 kg/m3 | 1440.9 ± 2.3 | 1087.41 ± 1 | 1428.2 ± 2.3 | 1084.17 ± 1 kg/m3 | 1414.7 ± 2.3 | mass density ([2]; 323.15 K): 1080.75 ± 1 kg/m3 |
| C1COCCO1 [1,4-dioxane] + CCCCCCn1cc[n+](C)c1.F[B-](F)(F)F |  |  |  |  |  |  |  |  |  |  |  |  |  |  |  |  |  |  |  |  | refractive index ([3]; 298.15 K): 1.41967 ± 0.00037; refractive index ([3]; 308.15 K): 1.4148 ± 0.00037; refractive index ([3]; 318.15 K): 1.40993 ± 0.00037; speed of sound ([4]; 298.15 K): 1345 ± 1.2 m/s; mass density ([4]; 298.15 K): 1027.85 ± 0.12 kg/m3; speed of sound ([4]; 308.15 K): 1301.1 ± 1.2 m/s; mass density ([4]; 308.15 K): 1016.52 ± 0.12 kg/m3; speed of sound ([4]; 318.15 K): 1257.8 ± 1.2 m/s; mass density ([4]; 318.15 K): 1005.12 ± 0.12 kg/m3 |
